“Also recorded” adds a separate entry of the source.
Assays:
[1] = system: mechanical allodynia of the neuropathic (“Cuff”) mice; details: as previously published (Benbouzid et al. 2008); cited from earlier work
[2] = system: mechanical allodynia of the neuropathic (“Cuff”) mice; assay: Sciatic nerve cuff murine model of neuropathic pain, von Frey filament test in neuropathic (Cuff) mice; assay type: in vivo, C57BL/6J mice; details: for Mechanical allodynia of Cuff mice after the first (acute) injection: intraperitoneal, mice neuropathic for 2 weeks; for Allodynia in neuropathic (Cuff) animals after chronic treatment, recapitulation (FIG. 25): chronic treatment (14-21 days), doses and modes as in examples 7, 9 to 14 and 20 (formoterol 0.5 mg/kg, terbutalin 5 mg/kg); for Effect on neuropathic allodynia acutely after the first injection, summary statement: first injection of the agonist, doses as in examples 7, 9, 11 and 15; for Mechanical allodynia in neuropathic (Cuff) mice after chronic treatment by inhalation: twice a day
Experimental: (§1) The experiments were carried out on adult male mice. The pharmacological experiments were carried out using C57BL/6J mice (3-to-6 weeks old on their arrival, Charles River, L'Arbresle, France).
All the experiments began with mice that were 6-to-9 weeks old. […] For all the other experiments, the mice were combined at four to five per cage and kept under alternating 12-hour day/night (light at 6 am) with food and water ad libitum.
(§2) The model is obtained by placing a polyethylene cuff around the main branch of the right sciatic nerve of each mouse. Before any surgical procedure, the mice were assigned to the various experimental groups in such a way that the baseline mechanical nociception threshold and the weight are equivalent between the various groups. The surgical procedure was carried out under ketamin-xylazin anesthesia (ketamin: 17 mg/ml, xylazin 2.5 mg/ml, intraperitoneal injection in a proportion of 4 ml/kg) (limited liability company Centravet, Taden, France). The common branch of the sciatic nerve was exposed and a section 2 mm long of a hollow PE-20 polyethylene tube (“Harvard Apparatus”, Les Ulis, France) was placed around said branch (“Cuff” group). […] Control mice were operated on according to the same procedure, but without placing the cuff (“Sham” group). The experimental groups are made up of at least 4 mice for each control (“Sham”) group and at least 5 mice for each neuropathic (“Cuff”) group.
(§3) The mice are placed in transparent Plexiglas (registered trademark) boxes (7 cm×9 cm×7 cm) placed on a raised grid. Before the test, the mice are allowed to become accustomed to this device for 15 minutes. During the test, the von Frey filaments are applied to the plantar surface of each back foot according to ascending forces (from 0.16 g up to a foot withdrawal response, or up to a maximum of 10 g). Each filament is tested 5 times per foot and the threshold is defined by the presence of 3 or more withdrawals observed over the 5 tests. Before the surgery as described above, the animals were pretested in order to establish their baseline nociceptive response. During the chronic treatment experiments and those of repeated injection of antagonists, the tests are carried out in the mornings before the first injection of the day. During the acute agonist injection experiments, the tests are carried out after the first injection according to the time course as presented on the graphs.
The surgery for installing the cuff corresponds to day 0.
(§4) For all the treatments carried out by injection, said injections were given intraperitoneally in a volume of 50 microL per 10 mg of body weight.

[3] = system: nociceptive sensitivity of the mice of the control (“Sham”) group; assay: von Frey filament test in control (Sham) mice operated without cuff; assay type: in vivo, C57BL/6J mice; details: for Sensitivity of control (Sham) animals under chronic treatment, recapitulation (FIG. 26): chronic treatment (14-21 days), doses and modes as in examples 2, 7, 9 to 14 and 20 (formoterol 0.5 mg/kg, terbutalin 5 mg/kg); for Nociceptive sensitivity of control (Sham) mice under chronic treatment: repeated injections, doses and modes as for the Cuff mice of the same example; for Sensitivity of control (Sham) animals, dose-response recapitulation (FIG. 21): terbutalin 0.125, 0.25, 0.5 or 5 mg/kg, nortriptylin 5 mg/kg, twice a day, 3 weeks
Experimental: as §1, §2, §3, §4

[4] = system: mechanical allodynia of the neuropathic (“Cuff”) mice; assay: Cotreatment with adrenoreceptor antagonists in Cuff mice relieved by chronic nortriptylin or beta-agonist treatment, von Frey test; assay type: in vivo, C57BL/6J mice; details: for Effect of coadministered beta2-adrenoreceptor antagonist ICI 118,551 on the allodynia of agonist-treated Cuff mice: ICI 118,551 2 mg/kg intraperitoneal, after 3 weeks of agonist treatment (doses as in chronic treatment; terbutalin 0.5 mg/kg), 3 to 6 days of cotreatment; for Effect of ICI 118,551 on the therapeutic effect of chronic agonist treatment on neuropathic allodynia, summary statement: chronic treatment with the agonist plus beta2-adrenoreceptor antagonist ICI 118,551
Experimental: as §2
For the tests, in the examples which follow, the pressure is exerted on the foot of the mice by means of von Frey filaments (Bioseb, Chaville, France) (Benbouzid, M. et al. Biological Psychiatry 63:633-636 (2008) (10) and Benbouzid, M. et al. European Journal of Pain 12:591-599 (2008) (11)). The mice are placed in transparent Plexiglas (registered trademark) boxes (7 cm×9 cm×7 cm) placed on a raised grid. Before the test, the mice are allowed to become accustomed to this device for 15 minutes. During the test, the von Frey filaments are applied to the plantar surface of each back foot according to ascending forces (from 0.16 g up to a foot withdrawal response, or up to a maximum of 10 g). Each filament is tested 5 times per foot and the threshold is defined by the presence of 3 or more withdrawals observed over the 5 tests. Before the surgery as described above, the animals were pretested in order to establish their baseline nociceptive response. During the chronic treatment experiments and those of repeated injection of antagonists, the tests are carried out in the mornings before the first injection of the day. During the acute agonist injection experiments, the tests are carried out after the first injection according to the time course as presented on the graphs.
The procedure for intrathecal (i.t.) injection of the beta2-adrenoreceptor antagonist ICI 118,551 (3 μg in 10 μl) is carried out under halothane gas anesthesia according to the protocol described by Inoue et al. (Nature Medicine 2004, 10:712-718 (12)). These i.t. injections are carried out just before the intraperitoneal injection of salbutamol (2 mg/kg, i.p.). A 27-gauge injection needle connected to a 50 μl Hamilton syringe is inserted, between the L5 and L6 vertebrae, into the subarachnoid space. The correct placement of the needle is verified by the presence of a reflex movement of the tail of the mouse. The mice are pretested before this cotreatment procedure, and then cotreated twice (a morning and the corresponding evening) before being retested the following morning for their mechanical nociceptive sensitivity.

[5] = 5 mg/kg, injection twice a day (morning and evening), chronic
[6] = 0.5 mg/kg, injection twice a day, chronic

Structure (SMILES) | Sensitivity of the neuropathic mouse model to chronic treatment with a tricyclic antidepressant [1] | Mechanical allodynia in neuropathic (Cuff) mice after chronic treatment [2, 5] | Sensitivity of control (Sham) animals under chronic treatment, recapitulation (FIG. 26) [3] | Nociceptive sensitivity of control (Sham) mice under chronic treatment [3] | Sensitivity of control (Sham) animals, dose-response recapitulation (FIG. 21) [3] | Allodynia in neuropathic (Cuff) animals after chronic treatment, recapitulation (FIG. 25) [2] | Effect on neuropathic allodynia acutely after the first injection, summary statement [2] | Effect of coadministered beta2-adrenoreceptor antagonist ICI 118,551 on the allodynia of agonist-treated Cuff mice [4] | Effect of ICI 118,551 on the therapeutic effect of chronic agonist treatment on neuropathic allodynia, summary statement [4] | other results
CN(C)CCC=C1c2ccccc2CCc2ccccc21 [amitriptylin] | sensitive to chronic treatment | – | – | – | – | – | – | – | – | –
CNCCC=C1c2ccccc2CCc2ccccc21 [nortriptylin] | sensitive to chronic treatment | ineffective initially, but subsequently causes the allodynia to completely disappear | does not impair the sensitivity of control animals | not affected | does not impair the sensitivity of control animals | – | – | – | – | –
CC(C)(C)NCC(O)c1ccc(O)c(CO)c1 (stereo not drawn) [salbutamol] | – | – | do not affect the control animals; also recorded: does not aspecifically affect the sensitivity of the control animals | not affected | – | relieve this allodynia; also recorded: causes the neuropathic pain, for example the neuropathic allodynia, to completely disappear | not observed acutely after the first injection | causes the allodynia to reappear | blocks the therapeutic effect | Mechanical allodynia in neuropathic (Cuff) mice after chronic treatment ([2]; 2 mg/kg, injection twice a day, chronic): relieves the mechanical allodynia; Mechanical allodynia of Cuff mice after the first (acute) injection ([2]; 2 mg/kg): has no effect on the mechanical allodynia; Mechanical allodynia in neuropathic (Cuff) mice after chronic treatment by inhalation ([2]; salbutamol sulfate inhaler (Ventolin), 100 μg per session for 2 weeks, then inhaler pressed 3 times per session for 9 days): relieves the mechanical allodynia; also recorded: relieves neuropathic allodynia; Effect of intrathecal beta2-adrenoreceptor antagonist ICI 118,551 on the allodynia of agonist-treated Cuff mice ([4]; ICI 118,551 3 μg in 10 μl intrathecal before each of 2 injections of salbutamol 2 mg/kg i.p., after at least 3 weeks of salbutamol): causes the allodynia to reappear; also recorded: blocks the therapeutic effect
OCc1cc(C(O)CNCCCCCCOCCCCc2ccccc2)ccc1O (stereo not drawn) [salmeterol] | – | – | do not affect the control animals; also recorded: does not aspecifically affect the sensitivity of the control animals | not affected | – | relieve this allodynia; also recorded: causes the neuropathic pain, for example the neuropathic allodynia, to completely disappear | not observed acutely after the first injection | causes the allodynia to reappear | blocks the therapeutic effect | Mechanical allodynia in neuropathic (Cuff) mice after chronic treatment ([2]; 1 mg/kg, injection twice a day, chronic): completely suppresses the mechanical allodynia; Mechanical allodynia of Cuff mice after the first (acute) injection ([2]; 1 mg/kg): has no effect on the mechanical allodynia; Mechanical allodynia in neuropathic (Cuff) mice after chronic treatment by inhalation ([2]; salmeterol xinafoate inhaler (Serevent), 50 μg per session for 2 weeks, then inhaler pressed four times per session for 9 days): relieves the mechanical allodynia; also recorded: relieves neuropathic allodynia
CC(C)(C)NCC(O)c1cc(O)cc(O)c1 (stereo not drawn) [terbutalin] | – | completely suppresses the mechanical allodynia | do not affect the control animals; also recorded: does not aspecifically affect the sensitivity of the control animals | not affected | do not affect | relieve this allodynia; also recorded: causes the neuropathic pain, for example the neuropathic allodynia, to completely disappear | not observed acutely after the first injection | causes the allodynia to reappear | blocks the therapeutic effect | Mechanical allodynia of the right (neuropathic) foot after chronic treatment ([2]; 0.125 mg/kg, injection twice a day, chronic): completely suppress the mechanical allodynia; Mechanical allodynia of the right (neuropathic) foot after chronic treatment ([2]; 0.25 mg/kg, injection twice a day, chronic): completely suppress the mechanical allodynia; Mechanical allodynia in neuropathic (Cuff) mice after chronic treatment [2, 6]: completely suppresses the mechanical allodynia; Response of the non-neuropathic left foot (foot without surgery) of Cuff mice [2, 6]: without aspecifically affecting the response; Mechanical allodynia of Cuff mice after the first (acute) injection ([2]; 5 mg/kg): has no effect on the mechanical allodynia; Mechanical allodynia in neuropathic (Cuff) mice after chronic application of a gel to the skin ([2]; 0.1 ml of gel twice a day, 2.5 mg/ml terbutalin hemisulfate in 5% hydroxyethylcellulose gel, from 8 days after surgery): relieves the mechanical allodynia; also recorded: relieves neuropathic allodynia; Mechanical sensitivity of the non-neuropathic left foot of Cuff mice (FIG. 21) ([2]; 0.125, 0.25, 0.5 or 5 mg/kg twice a day, chronic (3 weeks)): without affecting the mechanical sensitivity; Allodynia of the neuropathic right foot, dose-response recapitulation (FIG. 21) ([2]; 0.125, 0.25, 0.5 or 5 mg/kg twice a day, chronic (3 weeks), averaged over third week): suppresses the allodynia; Mechanical allodynia in neuropathic (Cuff) mice with subcutaneous implant (continuous delivery) ([2]; silicone tube implant containing 10 mg terbutalin hemisulfate, inserted 14 days after surgery): relieves the mechanical allodynia; also recorded: relieves neuropathic allodynia

From patent US20110027352A1, “COMPOUNDS FOR USE IN THE TREATMENT OF NEUROPATHIC PAIN” (priority 2008, published 2011)
